This test relates to MDA-MB-468 breast. In words: NCI anticancer screen, dose series, 48 h.

Molecules are shown by their SMILES.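 Cultured in 96-well plates, cells were exposed to test compound for 48 hours across five concentrations. GI50 marks 50% less growth. The concentration for full growth arrest is given as TGI.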 Some results are limits rather than exact numbers.

Regarding `CC[C@@H](C(=O)[C@@H](C)[C@@H](O)[C@H](C)[C@@H]1O[C@@H]([C@@H](CC)C(=O)N(CC)CC)CC[C@@H]1C)C1O[C@]2(C=CC(=O)[C@]3(CC[C@@](C)([C@H]4CC[C@](O)(CC)[C@H](C)O4)O3)O2)[C@H](C)C[C@@H]1C` (some centres not stated), the GI50 was 943 nM and the TGI amounted to 3190 nM. For `O=C(/C=C/c1cc([N+](=O)[O-])ccc1Cl)c1ccccc1`, the GI50 was 8460 nM and the TGI was 22100 nM.

Take `COc1cc(Nc2ccnc(NCCCNc3ccnc4cc(Cl)ccc34)n2)cc(OC)c1`: the GI50 is 1490 nM and the TGI was determined as 3180 nM. As to `CN1c2ccccc2C(C)(C)C12C=Cc1cc(O)ccc1O2` (configuration not stated), the GI50 was 3460 nM and the TGI was found to be 16700 nM. As to `Cc1cccc2c(=O)c3c(sc12)c(NCCNCCO)nc1ccccc13`, the GI50 is 1090 nM and the TGI turned out to be 2500 nM. For `Cc1cc(N(CCNc2ccnc3cc(Cl)ccc23)Cc2ccco2)nc(Cl)n1`, in that order: 1500 nM and 3070 nM. Turning to `Cc1c(COc2cc(OCc3cccc(C#N)c3)c(CN3C[C@H](O)C[C@@H]3C(=O)O)cc2Cl)cccc1-c1ccc2c(c1)OCCO2`, the GI50 was 6720 nM and the TGI was found to be 20500 nM. For the compound `COc1ccc(-c2nc3ccccn3c2/C=C/C(=O)c2cc(OC)c(OC)c(OC)c2)cc1`, the GI50 is 11900 nM and the TGI was found to be 65500 nM. For `COc1ccc(Nc2c3ccccc3nc3ccccc23)cc1`, in that order: 547 nM and 4530 nM. For `O=C(Nc1ccc2ncnc(Nc3ccc(Oc4cccc(F)c4)c(Cl)c3)c2c1)c1ccc(CNCCO)cc1`, in that order: 561 nM and 2020 nM. As for `COc1cc2c(cc1Nc1nc(Nc3ccsc3C(N)=O)c3cc[nH]c3n1)N(C(=O)CN(C)C)CCC2(C)C`, the GI50 is 471 nM and the TGI came out at 2600 nM. In the same order, the values of `Cc1cc(Cl)ccc1NC(=O)c1cc2ccccc2cc1O` are 1780 nM and 7420 nM. In the same order, the values of `O=[N+]([O-])c1c(Br)sc(Br)c1[N+](=O)[O-]` are 1270 nM and 2910 nM.

On to `Fc1ccc(Nc2nc3nonc3nc2Nc2ccc(F)cc2)cc1`, for which the GI50 was 281 nM and the TGI was determined as 1460 nM. In the same order, the values of `Cc1ccc2ccc3ccc(C)nc3c2n1.Cc1ccc2ccc3ccc(C)nc3c2n1.Oc1c(Cl)cc(Cl)c2ccc(CN3CCCCC3)nc12.[Ru]` are 248 nM and 875 nM.

As to `Nc1nc(-c2ccccc2)nc(N)c1N=O`, the GI50 was 1750 nM and the TGI is 5700 nM. In the same order, the values of `CCNC(=O)c1cc2c(-c3cc(C(C)(C)O)ccc3Oc3c(C)cc(F)cc3C)cn(C)c(=O)c2[nH]1` are 1170 nM and 7450 nM. For `CC(=Nc1ccccc1)C1=C(O)C(Cc2ccccc2)NC1=O` (configuration not stated), in that order: 17.3 nM and 50.2 nM. In the case of `NC(=O)c1cc(-c2ccc(F)cc2)cc(-c2ccncc2)c1N`, the GI50 is 8170 nM and the TGI was over 25000 nM. In the same order, the values of `CCCCCCCCCCCCCC[n+]1ccc2c(C)c3c(c(C)c2c1)c1cc(O)ccc1n3CC` are 176 nM and 654 nM. In the same order, the values of `CCC1CCc2nc3sc(C(=O)Nc4cccc(F)c4)c(N)c3cc2C1` (configuration not stated) are 471 nM and over 100000 nM. Take `N#CSCC1CC(O)(c2ccccc2)CC(c2ccc(F)cc2)O1` (configuration not stated): the GI50 was 2250 nM and the TGI is 7550 nM. In the same order, the values of `CC1(C)[C@@H](O[C@@H]2OC[C@@H](O[C@@H]3O[C@H](CO)[C@@H](O)[C@H](O)[C@H]3O[C@@H]3OC[C@@H](O)[C@H](O)[C@H]3O)[C@H](O)[C@H]2O[C@@H]2O[C@H](CO)[C@@H](O)[C@H](O)[C@H]2O)CC[C@]2(C)[C@H]3CC[C@]45OC[C@@]6(CC[C@](C)(C=O)C[C@H]64)[C@H](O)C[C@@]5(C)[C@]3(C)CC[C@@H]12` are 941 nM and 1960 nM. For `COc1ccc(Cn2cc3c(c2-c2ccc(OC)cc2)CCc2cnoc2-3)cc1`, in that order: 254 nM and 809 nM.

As to `CN(C)c1ccc(Nc2cc(-c3cccc(OC(F)(F)F)c3)nc3ccc(N4CCCC4)cc23)cc1`, the GI50 is 2050 nM and the TGI is 4380 nM.

For the compound `O=C1/C(=C/c2ccc(Cl)cc2)N=C(c2ccccc2)N1CCc1cccs1`, the GI50 is 13700 nM and the TGI was determined as 98200 nM. In the same order, the values of `COc1ccc(OC)c(/C=C(/C)[N+](=O)[O-])c1` are 1270 nM and 2680 nM.

As for `CC(=O)O[C@]1(C(C)=O)CC[C@H]2[C@@H]3C=C(C)C4=CC(=O)CC[C@]4(C)[C@H]3CC[C@@]21C`, the GI50 was 77700 nM and the TGI is over 100000 nM. For `NC(=O)c1ccc2nc(-c3ccc(Oc4ccc(Cl)cc4)cc3)[nH]c2c1`, in that order: 10500 nM and 29300 nM. Regarding `CN(CC(=O)N(Cc1ccc(C2CCCCC2)cc1)c1ccc(C(=O)O)c(O)c1)S(=O)(=O)c1c(F)c(F)c(F)c(F)c1F`, the GI50 was 1760 nM and the TGI is 3760 nM.

As for `CN1CCN(c2ccc3nc(-c4ccc5nc(-c6ccc(OCCC(C)(C)C)cc6)[nH]c5c4)[nH]c3c2)CC1`, the GI50 is 1910 nM and the TGI was 4130 nM. `Nc1nc(-c2ccc(F)cc2)c(-c2ccc3ncccc3n2)s1` had a TGI of over 25000 nM. For the compound `O=C(NCc1ccc(Cn2c(=O)sn(-c3ccccc3)c2=O)cc1)OCc1ccc2c(Br)cc(Br)c(O)c2n1`, the GI50 was 500 nM and the TGI turned out to be 2010 nM. For `C[C@@H](CO)[C@@H]1CCC=C2CC[C@]3(C)[C@H](CC[C@@H]4[C@@]5(C)CCCNC(C)(C)[C@@H]5CC[C@]43C)[C@H]21`, in that order: 1800 nM and 3400 nM. Turning to `CCCCCCCCCCCC1CCCC(C)N1` (configuration not stated), the GI50 is 15500 nM and the TGI was determined as 31000 nM. With `COc1cc(/C=C/C(=O)c2ccc(NC(=O)CN3CCN(c4cc5c(cc4F)c(=O)c(C(=O)O)cn5C4CC4)CC3)cc2)cc(OC)c1OC`, the GI50 was 358 nM. On to `Oc1[nH]c2ccc(Cl)cc2c1/C=c1/ccc2c(c1)N=C(c1ccc(F)cc1)N=2`, for which the GI50 was 2020 nM and the TGI turned out to be 3570 nM.
